Biological target: T1, Rat Hepatic Microsomal HMG-CoA reductase (HMGR) (Rattus norvegicus, UniProt P51639)
T1 construct: Microsomes prepared from liver of rats administered with cholestyramine; from tissue
T1 sequence (P51639 1-887): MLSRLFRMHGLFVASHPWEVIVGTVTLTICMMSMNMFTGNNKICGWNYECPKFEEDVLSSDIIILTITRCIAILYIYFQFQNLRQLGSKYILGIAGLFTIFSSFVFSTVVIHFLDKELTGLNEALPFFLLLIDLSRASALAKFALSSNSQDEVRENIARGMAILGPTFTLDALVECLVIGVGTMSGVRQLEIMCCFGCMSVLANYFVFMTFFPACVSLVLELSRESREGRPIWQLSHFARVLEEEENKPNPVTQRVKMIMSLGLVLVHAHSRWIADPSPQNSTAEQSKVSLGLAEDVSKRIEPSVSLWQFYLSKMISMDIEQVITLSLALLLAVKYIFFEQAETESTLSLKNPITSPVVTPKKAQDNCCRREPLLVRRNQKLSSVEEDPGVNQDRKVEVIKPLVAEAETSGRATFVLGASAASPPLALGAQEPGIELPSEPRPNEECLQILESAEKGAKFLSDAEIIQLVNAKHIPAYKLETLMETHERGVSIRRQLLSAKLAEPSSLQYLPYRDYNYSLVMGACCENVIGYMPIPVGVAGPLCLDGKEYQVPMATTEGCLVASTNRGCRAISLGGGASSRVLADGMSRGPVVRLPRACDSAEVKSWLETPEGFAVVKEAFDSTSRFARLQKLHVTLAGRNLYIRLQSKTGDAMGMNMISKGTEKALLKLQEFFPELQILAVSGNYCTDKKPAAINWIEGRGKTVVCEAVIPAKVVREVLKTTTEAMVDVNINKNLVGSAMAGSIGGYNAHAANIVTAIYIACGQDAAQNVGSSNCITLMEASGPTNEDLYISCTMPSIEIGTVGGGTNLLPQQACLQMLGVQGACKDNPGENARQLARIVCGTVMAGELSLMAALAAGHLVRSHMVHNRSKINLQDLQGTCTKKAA
Test: Inhibitory activity against rat hepatic microsomal HMG-CoA reductase (14C-HMG-CoA substrate, 14C-mevalonolactone measured by TLC and scintillation counting)
Type: biochemical
Conditions: microsomes from liver of rats administered with cholestyramine, incubated for 10 minutes; for inhibition at 1 µM: Concentration of test compound 10^-6 M
Experimental: Experiment: Inhibitory activity against Rat Hepatic Microsomal HMG-CoA reductase (HMGR)
HMGR activities of microsomes are measured in accordance with the method of N. L. Young et al., Methods in Enzymology, 71, 498 (1981).
Microsomes prepared from liver of rats administered with cholestyramine were mixed with a solution of the compounds to be tested in dimethyl sulfoxide and ¹⁴C-HMG-CoA (substrate). After the mixture was incubated for 10 minutes, the reaction was quenched with 6N hydrochloric acid and the mixture was allowed to stand at 37°C for 15 minutes, followed by centrifugation. The supernatant was spotted on thin layer chromatography (TLC; Kieselgel 60F254 manufactured by Merck) and developed with toluene/acetone (1:1). The spot of ¹⁴C-mevalonolactone was collected and the amount of isotope was measured with a scintillation counter (Type 4640 TRI-CARB. manufactured by Paccard) to calculate an amount of the formed mevalonolactone. By comparing amounts of the formed mevalonolactone in the group treated with test compounds and the control group (without test compounds), HMGR activity inhibition rates of the test compounds were calculated.

inhibition at 1 µM | inhibition at 100 µM (Concentration of test compound 10^-4 M) | SMILES
93% |  | O=C(O)C[C@H](O)C[C@H](O)/C=C/C(=C(c1ccc(F)cc1)c1ccc(F)cc1)c1ccco1 (single isomer, unassigned) [(-)-(3R*,5S*)]
79% | 96% | O=C(O)C[C@H](O)C[C@H](O)/C=C/C(=C(c1ccc(F)cc1)c1ccc(F)cc1)c1ccccc1 (racemic) [(±)-(3R*,5S*) [r3]]
